# Patent US11992499B2, “Quinoline derivatives for use in the treatment of inflammation diseases” (ABIVAX, priority 2018, dated 2024)
# “Also recorded” adds a separate entry of the source. Read-outs that look alike come from different tables or passages of the source.
# Legend:
# [1] = system: STAM model of non-alcoholic steatohepatitis; type: in vivo; conditions: for Liver weight (mean ± SD) / Liver-to-body weight ratio (mean ± SD): n = 8
# From the text: To prepare dosing solution, Compound A and B were weighed and suspended in Vehicle which was composed of 20% of Vehicle-A1 and 80% of Vehicle-A2. Vehicle-A1 was composed of 0.5% (w/v) Carboxymethyl cellulose (CMC) 400-800 centipoises in water for injection+2.5% (w/v) Tween 80. Vehicle-A2 was composed of 0.5% (w/v) Carboxymethyl cellulose (CMC) 400-800 centipoises in water for injection. Telmisartan (Micardis®) was purchased from Boehringer Ingelheim GmbH (Germany) and dissolved in pure water.
# (§1) NASH was induced in 48 male mice by a single subcutaneous injection of 200 μg streptozotocin (STZ, Sigma-Aldrich, USA) solution 2 days after birth and feeding with high fat diet (HFD, 57 kcal % fat, Cat #HFD32, CLEA Japan, Inc., Japan) after 4 weeks of age.
# Compound A and B, and Telmisartan were administered orally in a volume of 10 mL/kg.
# (§2) Compound A was administered at 3 dose levels of 10, 20 and 40 mg/kg once daily from 6 to 9 weeks of age. Compound B was administered at a dose of 40 mg/kg once daily from 6 to 9 weeks of age. Telmisartan was administered at a dose of 10 mg/kg once daily from 6 to 9 weeks of age.
# C57BL/6 mice (14-day-pregnant female) were obtained from Japan SLC, Inc. (Japan). All animals used in the study were housed and cared for in accordance with the Japanese Pharmacological Society Guidelines for Animal Use.
# Group 1: Vehicle Eight NASH mice were orally administered vehicle [20% of Vehicle-A1 and 80% of Vehicle-A2] in a volume of 10 mL/kg once daily from 6 to 9 weeks of age.
# Eight NASH mice were orally administered vehicle supplemented with Compound A at a dose of 10 mg/kg once daily from 6 to 9 weeks of age.
# Eight NASH mice were orally administered vehicle supplemented with Compound A at a dose of 20 mg/kg once daily from 6 to 9 weeks of age.
# Eight NASH mice were orally administered vehicle supplemented with Compound A at a dose of 40 mg/kg once daily from 6 to 9 weeks of age.
# Eight NASH mice were orally administered vehicle supplemented with Compound B at a dose of 40 mg/kg once daily from 6 to 9 weeks of age.
# Eight NASH mice were orally administered pure water supplemented with Telmisartan at a dose of 10 mg/kg once daily from 6 to 9 weeks of age.
# The viability, clinical signs and behavior were monitored daily. Body weight was recorded before the treatment. […] The animals were sacrificed at 9 weeks of age by exsanguination through direct cardiac puncture under isoflurane anesthesia (Pfizer Inc.).
# [2] = system: STAM model of non-alcoholic steatohepatitis; experiment: STAM model of NASH: plasma ALT; type: in vivo, mice; conditions: for Plasma ALT (mean ± SD): n = 8
# Procedure: NASH was induced in 48 male mice by a single subcutaneous injection of 200 μg streptozotocin (STZ, Sigma-Aldrich, USA) solution 2 days after birth and feeding with high fat diet (HFD, 57 kcal % fat, Cat #HFD32, CLEA Japan, Inc., Japan) after 4 weeks of age. Compound A was administered at 3 dose levels of 10, 20 and 40 mg/kg once daily from 6 to 9 weeks of age. Compound B was administered at a dose of 40 mg/kg once daily from 6 to 9 weeks of age. Telmisartan was administered at a dose of 10 mg/kg once daily from 6 to 9 weeks of age. For plasma biochemistry, non-fasting blood was collected in polypropylene tubes with anticoagulant (Novo-Heparin, Mochida Pharmaceutical Co. Ltd., Japan) and centrifuged at 1,000×g for 15 minutes at 4° C. The supernatant was collected and stored at −80° C. until use. Plasma ALT was measured by FUJI DRI-CHEM 7000 (Fujifilm, Japan).
# [3] = system: STAM model of non-alcoholic steatohepatitis; experiment: STAM model of NASH: liver triglyceride content; type: in vivo, mice; conditions: for Liver triglyceride (mean ± SD): n = 8
# Procedure: as §1, §2
# Liver total lipid-extracts were obtained by Folch's method (Folch J. et al., J. Biol. Chem. 1957; 226: 497). Liver samples were homogenized in chloroform-methanol (2:1, v/v) and incubated overnight at room temperature. After washing with chloroform-methanol-water (8:4:3, v/v/v), the extracts were evaporated to dryness, and dissolved in isopropanol. Liver triglyceride content was measured by Triglyceride E-test (FUJIFILM Wako Pure Chemical Corporation, Japan).
# [4] = system: STAM model of non-alcoholic steatohepatitis; experiment: STAM model of NASH: HE staining and NAFLD Activity score; type: in vivo, mice; set-up: key to NAFLD Activity score (mean ± SD): NAFLD Activity score per Kleiner et al. 2005 criteria
# Procedure: (§3) NASH was induced in 48 male mice by a single subcutaneous injection of 200 μg streptozotocin (STZ, Sigma-Aldrich, USA) solution 2 days after birth and feeding with high fat diet (HFD, 57 kcal % fat, Cat #HFD32, CLEA Japan, Inc., Japan) after 4 weeks of age. Compound A was administered at 3 dose levels of 10, 20 and 40 mg/kg once daily from 6 to 9 weeks of age. Compound B was administered at a dose of 40 mg/kg once daily from 6 to 9 weeks of age. Telmisartan was administered at a dose of 10 mg/kg once daily from 6 to 9 weeks of age. For HE staining, sections were cut from paraffin blocks of liver tissue prefixed in Bouin's solution and stained with Lillie-Mayer's Hematoxylin (Muto Pure Chemicals Co., Ltd., Japan) and eosin solution (FUJIFILM Wako Pure Chemical Corporation). NAFLD Activity score (NAS) was calculated according to the criteria of Kleiner (Kleiner D E. et al., Hepatology, 2005; 41:1313). To visualize collagen deposition, Bouin's fixed liver sections were stained using picro-Sirius red solution (Waldeck, Germany). For quantitative analysis of fibrosis area, bright field images of Sirius red-stained sections were captured around the central vein using a digital camera (DFC295; Leica, Germany) at 200-fold magnification, and the positive areas in 5 fields/section were measured using ImageJ software (National Institute of Health, USA).
# [5] = system: STAM model of non-alcoholic steatohepatitis; experiment: STAM model of NASH: Sirius red staining, fibrosis area; type: in vivo, mice; conditions: for Sirius red-positive area (fibrosis area, mean ± SD): n = 8
# Procedure: as §3
# [6] = system: STAM model of non-alcoholic steatohepatitis; experiment: STAM model of NASH: Alpha-SMA immunostaining; type: in vivo, mice; conditions: for Alpha-SMA-positive area (mean ± SD): n = 8
# Procedure: NASH was induced in 48 male mice by a single subcutaneous injection of 200 μg streptozotocin (STZ, Sigma-Aldrich, USA) solution 2 days after birth and feeding with high fat diet (HFD, 57 kcal % fat, Cat #HFD32, CLEA Japan, Inc., Japan) after 4 weeks of age. Compound A was administered at 3 dose levels of 10, 20 and 40 mg/kg once daily from 6 to 9 weeks of age. Compound B was administered at a dose of 40 mg/kg once daily from 6 to 9 weeks of age. Telmisartan was administered at a dose of 10 mg/kg once daily from 6 to 9 weeks of age. […] (Table 9 herein after)
# [7] = system: STAM model of non-alcoholic steatohepatitis; experiment: STAM model of NASH: F4/80 immunostaining; type: in vivo, mice; conditions: for F4/80-positive area (mean ± SD): n = 8
# Procedure: as §1, §2
# [8] = 40 mg/kg PO QD (Compound A high, Compound B groups)
# [9] = 40 mg/kg PO QD, 6-9 wks of age (Compound A high, Compound B groups)
# [10] = 40 mg/kg PO QD (Compound B group)
# [11] = 40 mg/kg PO QD, 6-9 wks of age (Compound A high, Compound B groups), n = 8
# [12] = summary statement, dose not stated
# [13] = 10 mg/kg PO QD (Compound A low, Telmisartan groups)
# [14] = 10 mg/kg PO QD, 6-9 wks of age (Compound A low, Telmisartan groups)
# [15] = 10 mg/kg PO QD (Telmisartan group)
# [16] = 10 mg/kg PO QD, 6-9 wks of age (Compound A low, Telmisartan groups), n = 8
smiles,measurement,setting,value
O=C(O)[C@H]1O[C@@H](N(c2ccc(OC(F)(F)F)cc2)c2ccc3cccc(Cl)c3n2)[C@H](O)[C@@H](O)[C@@H]1O [Compound B],Mean liver weight compared with the Vehicle group,[1]; [8],tended to increase
same,Mean liver-to-body weight ratio compared with the Vehicle group,[1]; [8],tended to increase
same,Liver weight (mean ± SD),[1]; [9],1606 ± 227 mg
same,Liver-to-body weight ratio (mean ± SD),[1]; [9],8.1 ± 1.1%
same,Plasma ALT level compared with the Vehicle group,[2]; [8],tended to increase; also recorded: increasing trends
same,Plasma ALT (mean ± SD),[2]; [9],72 ± 24 U/L
same,Liver triglyceride content compared with the Vehicle group,[3]; [10],tended to increase; also recorded: increasing trends
same,Liver triglyceride (mean ± SD),[3]; [9],82.9 ± 32.6 mg/g liver
same,NAS compared with the Vehicle group,[4]; [8],tended to decrease; also recorded: decreasing trend
same,"Hepatocyte ballooning score 0 (None), number of mice",[4]; [11],5
same,"Hepatocyte ballooning score 1 (Few balloon cells), number of mice",[4]; [11],2
same,"Hepatocyte ballooning score 2 (Many cells/prominent ballooning), number of mice",[4]; [11],1
same,"Lobular inflammation score 2 (2-4 foci/200×), number of mice",[4]; [11],3
same,"Lobular inflammation score 3 (>4 foci/200×), number of mice",[4]; [11],5
same,NAFLD Activity score (mean ± SD),[4]; [11],3.6 ± 1.2
same,"Steatosis score 0 (<5%), number of mice",[4]; [11],4
same,"Steatosis score 1 (5-33%), number of mice",[4]; [11],4
same,Overall effect in this NASH model,[4]; conclusion of the study,potential anti-NAS effect
same,NAS compared with the Vehicle group,[4]; [12],decreasing trends
same,Fibrosis area (Sirius red-positive area) compared with the Vehicle group,[5]; [10],tended to increase; also recorded: increasing trends
same,"Sirius red-positive area (fibrosis area, mean ± SD)",[5]; [9],0.94 ± 0.23%
same,Alpha-SMA-positive area (mean ± SD),[6]; [9],1.17 ± 0.79%
same,F4/80-positive area compared with the Vehicle group,[7]; [8],tended to decrease
same,F4/80-positive area (mean ± SD),[7]; [9],1.90 ± 0.89%
"CCCc1nc2c(C)cc(-c3nc4ccccc4n3C)cc2n1Cc1ccc(-c2ccccc2C(=O)O)cc1 [Telmisartan, reference compound]",Mean liver weight compared with the Vehicle group,[1]; [13],significant decrease
same,Mean liver-to-body weight ratio compared with the Vehicle group,[1]; [13],tended to decrease
same,Liver weight (mean ± SD),[1]; [14],1115 ± 78 mg
same,Liver-to-body weight ratio (mean ± SD),[1]; [14],6.5 ± 0.4%
same,Plasma ALT level compared with the Vehicle group,[2]; [13],no significant difference
same,Plasma ALT (mean ± SD),[2]; [14],56 ± 14 U/L
same,Liver triglyceride content compared with the Vehicle group,[3]; [15],tended to decrease; also recorded: decreasing trend
same,Liver triglyceride (mean ± SD),[3]; [14],41.5 ± 16.9 mg/g liver
same,NAS compared with the Vehicle group,[4]; [13],significant decrease
same,"Hepatocyte ballooning score 0 (None), number of mice",[4]; [16],7
same,"Hepatocyte ballooning score 1 (Few balloon cells), number of mice",[4]; [16],1
same,"Lobular inflammation score 2 (2-4 foci/200×), number of mice",[4]; [16],4
same,"Lobular inflammation score 3 (>4 foci/200×), number of mice",[4]; [16],4
same,NAFLD Activity score (mean ± SD),[4]; [16],2.8 ± 0.7
same,"Steatosis score 0 (<5%), number of mice",[4]; [16],7
same,"Steatosis score 1 (5-33%), number of mice",[4]; [16],1
same,"Sirius red-positive area (fibrosis area, mean ± SD)",[5]; [14],0.70 ± 0.13%
same,Alpha-SMA-positive area compared with the Vehicle group,[6]; [15],tended to decrease
same,Alpha-SMA-positive area (mean ± SD),[6]; [14],0.83 ± 0.26%
same,F4/80-positive area (mean ± SD),[7]; [14],3.03 ± 0.95%
O=C(O)[C@H]1O[C@@H](N(c2ccc(OC(F)(F)F)cc2)c2ccc3cccc(Cl)c3n2)[C@H](O)[C@@H](O)[C@@H]1O [drawing 253],NAS compared with the Vehicle group,[4]; [12],decreasing trend
